In patent US6355799B1, “Substituted benzene compounds, process for their preparation, and herbicidal and defoliant compositions containing them” (ISK Americas Incorporated, priority 1997, dated 2002):

How the values were obtained:
Format in all cases: in vivo
[1] = tested on: sicklepod (Cassia obtusifolia, CASOB); assay: Post-emerge test, greenhouse herbicide activity screening; details: post-emerge, 14 days after application, rating scale 0-100
Method in brief: (§1)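 Visual ratings on a 0-100 scale (0 no damage, 100 all plants dead) were taken at 14 days after treatment. Rates of 15-1000 g ai/ha in acetone, 187 l/ha, were sprayed onto soil one day after planting (pre-emerge) or onto 2-3 leaf plants with 0.25% v/v surfactant (post-emerge).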

[2] = tested on: barnyardgrass (Echinochloa crus-galli, ECHCG); assay: as above; details: post-emerge, 14 days after application, rating scale 0-100
Method in brief: as §1

[3] = tested on: large crabgrass (Digitaria sanguinalis, DIGSA); assay: as above; details: post-emerge, 14 days after application, rating scale 0-100
Method in brief: as §1

[4] = tested on: ivyleaf morningglory (Ipomoea hederacea, IPOHE); assay: as above; details: post-emerge, 14 days after application, rating scale 0-100
Method in brief: as §1

[5] = tested on: velvetleaf (Abutilon theophrasti, ABUTH); assay: as above; details: post-emerge, 14 days after application, rating scale 0-100
Method in brief: as §1

[6] = tested on: johnsongrass (Sorghum halepense, SORHA); assay: as above; details: post-emerge, 14 days after application, rating scale 0-100
Method in brief: as §1

[7] = tested on: redroot pigweed (Amaranthus retroflexus, AMARE); assay: as above; details: post-emerge, 14 days after application, rating scale 0-100
Method in brief: as §1

[8] = tested on: lambsquarters (Chenopodium album, CHEAL); assay: as above; details: post-emerge, 14 days after application, rating scale 0-100
Method in brief: as §1

[9] = tested on: green foxtail (Setaria viridis, SETVI); assay: as above; details: post-emerge, 14 days after application, rating scale 0-100
Method in brief: as §1

[10] = tested on: redroot pigweed (Amaranthus retroflexus, AMARE); assay: Pre-emerge test, greenhouse herbicide activity screening; details: for Pre-emerge Herbicidal Activity, phytotoxicity rating (0-100), AMARE: rated 14 days after application, 0 = no damage, 100 = complete death; for phytotoxicity rating AMARE: pre-emerge, 14 days after application, scale 0-100
Method in brief: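 Compounds in acetone were track-sprayed at 15-1000 g ai/ha (187 l/ha) on sandy loam pots: pre-emerge one day after seeding, post-emerge at 2-3 leaf stage with 0.25% v/v non-ionic surfactant. Phytotoxicity was rated 14 days later on a 0 (no damage) to 100 (complete death) scale.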

[11] = tested on: sicklepod (Cassia obtusifolia, CASOB); assay: as above; details: for Pre-emerge Herbicidal Activity, phytotoxicity rating (0-100), CASOB: rated 14 days after application, 0 = no damage, 100 = complete death; for phytotoxicity rating CASOB: pre-emerge, 14 days after application, scale 0-100
Method in brief: (§2)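 Sandy loam pots; pre-emerge: sown 1 d pre-spray, surface-watered after, then bottom-watered. Post-emerge: sown 8–21 d before, 2–3 leaf stage, + 0.25% v/v NIS, bottom-watered. Acetone, 187 l/ha track spray, 15–1000 g ai/ha. 0–100 injury score, day 14.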

[12] = tested on: barnyardgrass (Echinochloa crus-galli, ECHCG); assay: as above; details: for Pre-emerge Herbicidal Activity, phytotoxicity rating (0-100), ECHCG: rated 14 days after application, 0 = no damage, 100 = complete death; for phytotoxicity rating ECHCG: pre-emerge, 14 days after application, scale 0-100
Method in brief: as §2

[13] = tested on: large crabgrass (Digitaria sanguinalis, DIGSA); assay: as above; details: for Pre-emerge Herbicidal Activity, phytotoxicity rating (0-100), DIGSA: rated 14 days after application, 0 = no damage, 100 = complete death; for phytotoxicity rating DIGSA: pre-emerge, 14 days after application, scale 0-100
Method in brief: as §2

[14] = tested on: ivyleaf morningglory (Ipomoea hederacea, IPOHE); assay: as above; details: for Pre-emerge Herbicidal Activity, phytotoxicity rating (0-100), IPOHE: rated 14 days after application, 0 = no damage, 100 = complete death; for phytotoxicity rating IPOHE: pre-emerge, 14 days after application, scale 0-100
Method in brief: as §2

[15] = tested on: velvetleaf (Abutilon theophrasti, ABUTH); assay: as above; details: for Pre-emerge Herbicidal Activity, phytotoxicity rating (0-100), ABUTH: rated 14 days after application, 0 = no damage, 100 = complete death; for phytotoxicity rating ABUTH: pre-emerge, 14 days after application, scale 0-100
Method in brief: as §2

[16] = tested on: johnsongrass (Sorghum halepense, SORHA); assay: as above; details: for Pre-emerge Herbicidal Activity, phytotoxicity rating (0-100), SORHA: rated 14 days after application, 0 = no damage, 100 = complete death; for phytotoxicity rating SORHA: pre-emerge, 14 days after application, scale 0-100
Method in brief: as §2

[17] = tested on: lambsquarters (Chenopodium album, CHEAL); assay: as above; details: for Pre-emerge Herbicidal Activity, phytotoxicity rating (0-100), CHEAL: rated 14 days after application, 0 = no damage, 100 = complete death; for phytotoxicity rating CHEAL: pre-emerge, 14 days after application, scale 0-100
Method in brief: as §2

[18] = tested on: green foxtail (Setaria viridis, SETVI); assay: as above; details: for Pre-emerge Herbicidal Activity, phytotoxicity rating (0-100), SETVI: rated 14 days after application, 0 = no damage, 100 = complete death; for phytotoxicity rating SETVI: pre-emerge, 14 days after application, scale 0-100
Method in brief: as §2

## Cn1c(C(F)(F)F)cc(=O)n(-c2c(F)cc(Cl)c(OC(F)F)c2NC(=O)c2ccc3ccccc3c2)c1=O [Compound 2-115, 3-[4-chloro-3-difluoromethoxy-6-fluoro-2-(2-naphthoylamino)phenyl]-1-methyl-6-trifluoromethyl-2,4(1H, 3H)-pyrimidinedione]
[1]; 63 g ai/ha
  phytotoxicity rating CASOB: 90
[1]; 250 g ai/ha
  phytotoxicity rating CASOB: 95
[2]; 63 g ai/ha
  phytotoxicity rating ECHCG: 10
[2]; 250 g ai/ha
  phytotoxicity rating ECHCG: 20
[3]; 63 g ai/ha
  phytotoxicity rating DIGSA: 20
[3]; 250 g ai/ha
  phytotoxicity rating DIGSA: 50
[4]; 63 g ai/ha
  phytotoxicity rating IPOHE: 90
[4]; 250 g ai/ha
  phytotoxicity rating IPOHE: 95
[5]; 63 g ai/ha
  phytotoxicity rating ABUTH: 100
[5]; 250 g ai/ha
  phytotoxicity rating ABUTH: 100
[6]; 63 g ai/ha
  phytotoxicity rating SORHA: 0
[6]; 250 g ai/ha
  phytotoxicity rating SORHA: 0
[7]; 63 g ai/ha
  phytotoxicity rating AMARE: 100
[7]; 250 g ai/ha
  phytotoxicity rating AMARE: 100
[8]; 63 g ai/ha
  phytotoxicity rating CHEAL: 100
[8]; 250 g ai/ha
  phytotoxicity rating CHEAL: 100
[9]; 63 g ai/ha
  phytotoxicity rating SETVI: 0
[9]; 250 g ai/ha
  phytotoxicity rating SETVI: 0
[10]; 63 g ai/ha
  Pre-emerge Herbicidal Activity, phytotoxicity rating (0-100), AMARE: 100
[10]; 125 g ai/ha
  Pre-emerge Herbicidal Activity, phytotoxicity rating (0-100), AMARE: 100
[11]; 63 g ai/ha
  Pre-emerge Herbicidal Activity, phytotoxicity rating (0-100), CASOB: 20
[11]; 125 g ai/ha
  Pre-emerge Herbicidal Activity, phytotoxicity rating (0-100), CASOB: 80
[12]; 63 g ai/ha
  Pre-emerge Herbicidal Activity, phytotoxicity rating (0-100), ECHCG: 80
[12]; 125 g ai/ha
  Pre-emerge Herbicidal Activity, phytotoxicity rating (0-100), ECHCG: 95
[13]; 63 g ai/ha
  Pre-emerge Herbicidal Activity, phytotoxicity rating (0-100), DIGSA: 90
[13]; 125 g ai/ha
  Pre-emerge Herbicidal Activity, phytotoxicity rating (0-100), DIGSA: 100
[14]; 63 g ai/ha
  Pre-emerge Herbicidal Activity, phytotoxicity rating (0-100), IPOHE: 0
[14]; 125 g ai/ha
  Pre-emerge Herbicidal Activity, phytotoxicity rating (0-100), IPOHE: 90
[15]; 63 g ai/ha
  Pre-emerge Herbicidal Activity, phytotoxicity rating (0-100), ABUTH: 100
[15]; 125 g ai/ha
  Pre-emerge Herbicidal Activity, phytotoxicity rating (0-100), ABUTH: 100
[16]; 63 g ai/ha
  Pre-emerge Herbicidal Activity, phytotoxicity rating (0-100), SORHA: 20
[16]; 125 g ai/ha
  Pre-emerge Herbicidal Activity, phytotoxicity rating (0-100), SORHA: 30
[17]; 63 g ai/ha
  Pre-emerge Herbicidal Activity, phytotoxicity rating (0-100), CHEAL: 100
[17]; 125 g ai/ha
  Pre-emerge Herbicidal Activity, phytotoxicity rating (0-100), CHEAL: 100
[18]; 63 g ai/ha
  Pre-emerge Herbicidal Activity, phytotoxicity rating (0-100), SETVI: 90
[18]; 125 g ai/ha
  Pre-emerge Herbicidal Activity, phytotoxicity rating (0-100), SETVI: 99

## Cn1c(C(F)(F)F)cc(=O)n(-c2c(F)cc(Cl)cc2NC(=O)c2ccc3ccccc3c2)c1=O [Compound 2-145, 3-[4-chloro-6-fluoro-2-(2-naphthoylamino)phenyl]-1-methyl-6-trifluoromethyl-2,4(1H, 3H)-pyrimidinedione]
[1]; 63 g ai/ha
  CASOB phytotoxicity rating: 100
[1]; 250 g ai/ha
  CASOB phytotoxicity rating: 100
[2]; 63 g ai/ha
  ECHCG phytotoxicity rating: 0
[2]; 250 g ai/ha
  ECHCG phytotoxicity rating: 20
[3]; 63 g ai/ha
  DIGSA phytotoxicity rating: 0
[3]; 250 g ai/ha
  DIGSA phytotoxicity rating: 10
[4]; 63 g ai/ha
  IPOHE phytotoxicity rating: 100
[4]; 250 g ai/ha
  IPOHE phytotoxicity rating: 100
[5]; 63 g ai/ha
  ABUTH phytotoxicity rating: 100
[5]; 250 g ai/ha
  ABUTH phytotoxicity rating: 100
[6]; 63 g ai/ha
  SORHA phytotoxicity rating: 0
[6]; 250 g ai/ha
  SORHA phytotoxicity rating: 10
[7]; 63 g ai/ha
  AMARE phytotoxicity rating: 95
[7]; 250 g ai/ha
  AMARE phytotoxicity rating: 100
[9]; 63 g ai/ha
  SETVI phytotoxicity rating: 0
[9]; 250 g ai/ha
  SETVI phytotoxicity rating: 40
[10]; 63 g ai/ha
  phytotoxicity rating AMARE: 100
[10]; 250 g ai/ha
  phytotoxicity rating AMARE: 100
[11]; 63 g ai/ha
  phytotoxicity rating CASOB: 40
[11]; 250 g ai/ha
  phytotoxicity rating CASOB: 90
[12]; 63 g ai/ha
  phytotoxicity rating ECHCG: 35
[12]; 250 g ai/ha
  phytotoxicity rating ECHCG: 60
[13]; 63 g ai/ha
  phytotoxicity rating DIGSA: 90
[13]; 250 g ai/ha
  phytotoxicity rating DIGSA: 100
[14]; 63 g ai/ha
  phytotoxicity rating IPOHE: 10
[14]; 250 g ai/ha
  phytotoxicity rating IPOHE: 100
[15]; 63 g ai/ha
  phytotoxicity rating ABUTH: 90
[15]; 250 g ai/ha
  phytotoxicity rating ABUTH: 100
[16]; 63 g ai/ha
  phytotoxicity rating SORHA: 30
[16]; 250 g ai/ha
  phytotoxicity rating SORHA: 50
[17]; 63 g ai/ha
  phytotoxicity rating CHEAL: 100
[17]; 250 g ai/ha
  phytotoxicity rating CHEAL: 100
[18]; 63 g ai/ha
  phytotoxicity rating SETVI: 60
[18]; 250 g ai/ha
  phytotoxicity rating SETVI: 100
